Results: ChEMBL document CHEMBL1142177, “Effects of age, gender, and race/ethnicity on the pharmacokinetics of posaconazole in healthy volunteers” (Antimicrob Agents Chemother, 2007)

How the values were obtained:
Format in all cases: ADME, organism-based
[1] = Tmax in >=65 yr old woman plasma at 400 mg, po twice daily after 8 days; conditions: female, human
[2] = Cmax in 18-45 yr old human plasma at 400 mg, po twice daily after 8 days; parameters: dose 400 mg, route oral
[3] = (§1) AUC (0-12 hrs) in >=65 yr old human plasma at 400 mg, po twice daily after 8 days
[4] = Half life in black racial/ethnic human plasma at 400 mg, po twice daily after 8 days
Homo sapiens [5] = assay: Apparent total clearance in 18-45 yr old human plasma at 400 mg, po twice daily after 8 days; conditions: in vivo, 192 h
[6] = Tmax in 18-45 yr old man plasma at 400 mg, po twice daily after 8 days; conditions: male, human
[7] = Half life in 18-45 yr old man plasma at 400 mg, po twice daily after 8 days; conditions: male, human
Homo sapiens [8] = assay: AUC (0-12 hrs) in white racial/ethnic human plasma at 400 mg, po twice daily after 8 days; parameters: time < 12 hr, dose 400 mg, route oral; conditions: in vivo
[9] = Cmax in black racial/ethnic human plasma at 400 mg, po twice daily after 8 days; parameters: dose 400 mg, route oral
Homo sapiens [10] = assay: Apparent total clearance in >=65 yr old woman plasma at 400 mg, po twice daily after 8 days; conditions: in vivo, 192 h
Homo sapiens [11] = assay: Apparent total clearance in white racial/ethnic human plasma at 400 mg, po twice daily after 8 days; conditions: in vivo, 192 h
[12] = Cmax in 18-45 yr old woman plasma at 400 mg, po twice daily after 8 days; parameters: dose 400 mg, route oral; conditions: female, human
Homo sapiens [13] = assay: AUC (0-12 hrs) in >=65 yr old man plasma at 400 mg, po twice daily after 8 days; parameters: time < 12 hr, dose 400 mg, route oral; conditions: in vivo
[14] = Half life in >=65 yr old man plasma at 400 mg, po twice daily after 8 days; conditions: male, human
[15] = Cmax in >=65 yr old man plasma at 400 mg, po twice daily after 8 days; parameters: dose 400 mg, route oral; conditions: male, human
[16] = Half life in >=65 yr old woman plasma at 400 mg, po twice daily after 8 days; conditions: female, human
Homo sapiens [17] = assay: AUC (0-12 hrs) in 18-45 yr old man plasma at 400 mg, po twice daily after 8 days; parameters: time < 12 hr, dose 400 mg, route oral; conditions: in vivo
Homo sapiens [18] = assay: AUC (0-12 hrs) in black racial/ethnic human plasma at 400 mg, po twice daily after 8 days; parameters: dose 400 mg, time < 12 hr, route oral; conditions: in vivo
[19] = Tmax in black racial/ethnic human plasma at 400 mg, po twice daily after 8 days
Homo sapiens [20] = assay: Apparent total clearance in >=65 yr old man plasma at 400 mg, po twice daily after 8 days; conditions: in vivo, 192 h
[21] = Cmax in 18-45 yr old man plasma at 400 mg, po twice daily after 8 days; parameters: dose 400 mg, route oral; conditions: male, human
[22] = Tmax in 18-45 yr old woman plasma at 400 mg, po twice daily after 8 days; conditions: female, human
Homo sapiens [23] = assay: Apparent total clearance in >=65 yr old human plasma at 400 mg, po twice daily after 8 days; conditions: in vivo, 192 h
[24] = Cmax in >=65 yr old woman plasma at 400 mg, po twice daily after 8 days; parameters: dose 400 mg, route oral; conditions: female, human
Homo sapiens [25] = assay: Apparent total clearance in 18-45 yr old man plasma at 400 mg, po twice daily after 8 days; conditions: in vivo, 192 h
[26] = Half life in white racial/ethnic human plasma at 400 mg, po twice daily after 8 days
Homo sapiens [27] = assay: as §1; parameters: time < 12 hr, dose 400 mg, route oral; conditions: in vivo
[28] = Half life in 18-45 yr old woman plasma at 400 mg, po twice daily after 8 days; conditions: female, human
[29] = Tmax in >=65 yr old human plasma at 400 mg, po twice daily after 8 days
Homo sapiens [30] = assay: AUC (0-12 hrs) in 18-45 yr old human plasma at 400 mg, po twice daily after 8 days; parameters: dose 400 mg, time < 12 hr, route oral; conditions: in vivo
Homo sapiens [31] = assay: AUC (0-12 hrs) in >=65 yr old woman plasma at 400 mg, po twice daily after 8 days; parameters: dose 400 mg, time < 12 hr, route oral; conditions: in vivo
Homo sapiens [32] = assay: Apparent total clearance in black racial/ethnic human plasma at 400 mg, po twice daily after 8 days; conditions: in vivo, 192 h
[33] = Tmax in white racial/ethnic human plasma at 400 mg, po twice daily after 8 days
[34] = Half life in 18-45 yr old human plasma at 400 mg, po twice daily after 8 days
[35] = Tmax in >=65 yr old man plasma at 400 mg, po twice daily after 8 days; conditions: male, human
Homo sapiens [36] = assay: Apparent total clearance in 18-45 yr old woman plasma at 400 mg, po twice daily after 8 days; conditions: in vivo, 192 h
[37] = Cmax in white racial/ethnic human plasma at 400 mg, po twice daily after 8 days; parameters: dose 400 mg, route oral
Homo sapiens [38] = assay: AUC (0-12 hrs) in 18-45 yr old woman plasma at 400 mg, po twice daily after 8 days; parameters: time < 12 hr, dose 400 mg, route oral; conditions: in vivo
[39] = Cmax in >=65 yr old human plasma at 400 mg, po twice daily after 8 days; parameters: dose 400 mg, route oral
[40] = Tmax in 18-45 yr old human plasma at 400 mg, po twice daily after 8 days

`CC[C@@H]([C@H](C)O)n1ncn(-c2ccc(N3CCN(c4ccc(OC[C@@H]5CO[C@@](Cn6cncn6)(c6ccc(F)cc6F)C5)cc4)CC3)cc2)c1=O` [POSACONAZOLE] showed a Tmax [1] of 6 h, a Cmax [2] of 2610 ng/mL and a half-life [3] of 41.8 h. It also gave a half-life [4] of 32.2 h, a CL (Homo sapiens [5]) of 33.1 L/h and a Tmax [6] of 4 h. For the same compound, the half-life [7] was 31.3 h, the AUC (Homo sapiens [8]) was 30091 ng·h/mL and the Cmax [9] was 2400 ng/mL. It also gave a CL (Homo sapiens [10]) of 25.4 L/h, a CL (Homo sapiens [11]) of 54 L/h and a Cmax [12] of 2520 ng/mL. For the same compound, the AUC (Homo sapiens [13]) was 32963 ng·h/mL, the half-life [14] was 37.7 h and the Cmax [15] was 3250 ng/mL. For the same compound, the half-life [16] was 42.4 h, the AUC (Homo sapiens [17]) was 27784 ng·h/mL and the AUC (Homo sapiens [18]) was 25107 ng·h/mL. For the same compound, the Tmax [19] was 5 h, the CL (Homo sapiens [20]) was 28.1 L/h and the Cmax [21] was 2680 ng/mL. For the same compound, the Tmax [22] was 5 h, the CL (Homo sapiens [23]) was 26.7 L/h and the Cmax [24] was 3500 ng/mL. It also gave a CL (Homo sapiens [25]) of 33.5 L/h, a half-life [26] of 37.3 h and an AUC (Homo sapiens [27]) of 35444 ng·h/mL. The half-life [28] was 31.9 h, the Tmax [29] was 5 h and the AUC (Homo sapiens [30]) was 26740 ng·h/mL. For the same compound, the AUC (Homo sapiens [31]) was 37924 ng·h/mL, the CL (Homo sapiens [32]) was 37 L/h and the Tmax [33] was 5 h. The half-life [34] was 31.6 h, the Tmax [35] was 5 h and the CL (Homo sapiens [36]) was 32.6 L/h. It also gave a Cmax [37] of 2860 ng/mL, an AUC (Homo sapiens [38]) of 25507 ng·h/mL and a Cmax [39] of 3370 ng/mL. The Tmax [40] was 5 h.
